Test results taken from patent US6664040B2, “Compositions and methods for delivery of a molecule into a cell” (priority 2000, dated 2003).

Key:
[1] = Dynamic light scattering (DLS); type: physicochemical
Method: DLS was performed on a DynaPro-801 Molecular Sizing Instrument. Protein solutions (250 μl) prepared either in water or in 50% aqueous TFE at a concentration of ˜3 mg ml^−1 (sVpr) or 4 mg ml^−1 (Vpr^47-96) were injected through a 0.1-μm Whatman membrane filter. Samples were illuminated by a semiconductor laser (780 nm, 25 mW) generated by a miniature solid-state Ga1-yAlyAs-diode. The photons scattered at a 90° angle by the particles in the sample were collected by an avalanche photodiode, and the time-dependent fluctuation in intensity of the scattered light was analyzed. The translational diffusion coefficient DT was calculated with the manufacturer's software (Dynamics, version 2.1). DT was then used to calculate the degree of sample polydispersity and the hydrodynamic radius of gyration RH of the particles using the Stokes-Einstein equation: (RH=(kbT)*(6πηDT)^−1 where kb=Boltzman's constant, T=absolute temperature in Kelvin, and η=solvent viscosity). Mr was calculated on a standard curve (Mr vs. RH) supplied by the manufacturer. Ten continuous measurements were made for each sample.

[2] = test system: rat yolk choriocarcinoma L2-RYC cells; assay: Cellular uptake of 125I-labeled peptides; type: cell-based
Method: sVpr and Vpu^32-81 were iodinated with the chloramine-T method. Briefly, ˜20 μg of peptides were reacted with 5.5×10^7 Bq (1.5 mCi) Na^125I. Free iodine was removed by gel filtration through a Dowex ion-exchange column saturated with bovine serum albumin (BSA). For studies on cellular uptake, rat yolk choriocarcinoma L2-RYC cells were grown in Dulbecco's modified Eagle's medium (DMEM) with 10% (v/v) fetal bovine serum (FBS) to 75% confluence on 24-well plates. Cells were washed once with phosphate-buffered saline (PBS) and incubated in serum-free DMEM supplemented with 0.1% BSA and ^125I-labeled sVpr or, as a negative control, ^125I-labeled Vpu^32-81. Radioactive peptides were added to the medium at a specific activity of 18 kBq ml^−1. In parallel, cells were also treated with a 100-fold excess of unlabeled sVpr or Vpu^32-81. Cells were incubated for specified times at 37° C., and the distribution of intra- and extracellular radioactivity was determined as described (50). […] Radioactivity was determined in triplicate in the medium and cell layer. To correct for nonspecific binding of peptides to the cell surface, the cell layer radioactivity determined at time point 0 min (time when radiolabeled peptides were added to the medium for less than 30 sec) was subtracted as background from the radioactivity detected in the cell layer.

Jurkat T cells [3] = assay: sVpr uptake by Jurkat T cells (flow cytometry); type: cell-based, human
Text: (§1) Full length Vpr was chemically synthesized and fluorescently labeled, purified by reverse phase HPLC, and added to the extracellular media of various cell cultures. Flow cytometry and epifluorescence microscopy were employed to monitor cellular uptake of sVpr. The distribution of cells within different phases of the cell cycle was studied by To-Pro-3 dye staining of DNA followed by flow cytometric analysis.

Jurkat T cells [4] = assay: Apoptosis induction in Jurkat T cells; type: cell-based, human; conditions: by 3 days
Jurkat T cells [5] = assay: G2 cell cycle arrest in transduced Jurkat T cells; type: cell-based, human; conditions: transduced subpopulations
Text: as §1

[6] = test system: peripheral blood mononuclear cells; assay: Transduction of freshly isolated peripheral blood mononuclear cells; type: cell-based, human
Text: as §1

HIV-1 ΔVpr = HIV-1 ΔVpr replication in macrophages (RT activity) with sVpr in the extracellular medium; type: cell-based; conditions: monocyte-derived macrophages
cells [7] = assay: Trypsin-insensitive cellular uptake at 37° C. or 4° C. (geometric mean fluorescence); type: cell-based; conditions: presence or absence of trypsin
Text: as §1

cells [8] = assay: Transduction with and without urea denaturation (percent of cells FITC+); type: cell-based
Text: as §1

HIV-1 virions = assay: Incorporation of sVpr into HIV-1 virions (western blot); type: cell-based; conditions: anti-Vpr and anti-p24
[9] = Solubility / absence of precipitation in aqueous solution; type: physicochemical
[10] = Immunization of rabbits with sVpr; type: in vivo, rabbit; conditions: used to generate polyclonal and monoclonal antibodies
Text: A rabbit polyclonal antiserum, R-96, was generated by immunization with sVpr.

[11] = molecular target: synthetic Vpr (sVpr), full-length, sequence derived from the isolate HIV-1 NL4-3 (HIV-1 (isolate NL4-3)) (UniProt P12520); assay: SDS-PAGE without reducing agent, silver stain; dimers prevented by DTT

Vpr^47-96: peptide comprising the C-terminal domain of sVpr from positions Tyr-47 to Ser-96
hydrodynamic radius RH of major species (monomer, 94.2% abundance) ([1]; 50% TFE): 1.25
hydrodynamic radius RH ([1]; pure water (sVpr: 3.8 mg ml^−1, pH 3.0; components of 14% and 86% abundance)): ~3 nm

sVpr: synthetic full-length 96-amino acid HIV-1 Vpr, sequence derived from isolate HIV-1 NL4-3 (SEQ ID NO: 1), made by solid-phase peptide synthesis
level of intracellular peptide, maximum ([2]; 125I-labeled, within 2 hours, 37° C.): 8-10%
uptake with 100-fold excess of unlabeled sVpr ([2]; 120 min): not inhibited
transduction of Jurkat T cells (Jurkat T cells [3]; 7.5, 15, 30 μg/ml): dose-dependent fashion
Cy3-positive cells (uptake) (Jurkat T cells [3]; Jurkat T cells, at 5 min): > 75%
apoptotic cells (Jurkat T cells [4]): approximately 90%
G2 cell cycle arrest (Jurkat T cells [5]): induces a dose-dependent G2 cell cycle arrest
transduction of CD4+, CD8+, CD3− lymphocytes and CD14+ monocytes ([6]; freshly isolated mixed cell populations): equivalently transduced
transduction of freshly isolated primary human cells ([6]; nanomolar concentrations): rapidly and strongly transduces
replication of HIV viruses lacking Vpr (HIV-1 ΔVpr): significantly increases
cell entry at 4° C. (cells [7]): enters cells at 4 °C
effect of urea denaturation on transduction properties (cells [8]): does not enhance
incorporation into newly produced HIV-1 virions (HIV-1 virions): is incorporated into newly produced HIV-1 virions
hydrodynamic radius RH (average) ([1]; 50% TFE): 2.3 nm
concentration at which no precipitation was observed ([9]; aqueous solution): ≥ 4000 µg/mL
precipitation under CD solution conditions ([9]; phosphate buffer pH 3.9 to 7.2, water, TFE): no precipitation
immunogenicity [10]: highly immunogenic

synthetic Vpr (sVpr), full-length, sequence derived from the isolate HIV-1 NL4-3 (from UniProt P12520 1-96)
percent of molecules as disulfide-linked dimers [11]: 10%
